Experimental findings from US20260242395A1, “AMINOHETEROARYL KINASE INHIBITORS” (ALLORION THERAPEUTICS INC, priority 2022, published 2026) are described below.

Assay type in all cases: biochemical
The target in one assay is T1, CDK4/CyclinD1 (Homo sapiens, UniProt P11802).
T1 construct: purchased ProQinase 0142-0143-1
Nature of the assay: CDK4/CyclinD1 kinase inhibitory activity (Caliper mobility shift). The following applies: enzyme 20 nM, ATP 672 uM, 28° C. 30 min; read-out: CDK4/Cyclin D1 IC50. The procedure, abridged:
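Recombinant CDK4/Cyclin D1 (20 nM final) preincubated 10 min at room temperature with compound in HEPES pH 7.5 buffer with MgCl2, DTT and Triton X-100. Reaction started with 3000 nM FAM-labelled peptide and 672 uM ATP, run 30 min at 28° C, stopped with EDTA. Mobility-shift % conversion gave % inhibition, and IC50 came from dose-response fits.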

A further assay addresses T2, CDK9/CyclinT1 (Homo sapiens, UniProt P50750).
T2 construct: purchased Millipore 14-685M
Nature of the assay: CDK9/CyclinT1 kinase inhibitory activity (Caliper mobility shift). The following applies: enzyme 12.5 nM, ATP 10M, 28° C. 30 min; read-out: CDK9/Cyclin T1 IC50. The procedure: CDK9/CyclinT1 kinase inhibitory activity (IC50): 5 μl of various dilutions of test compound in 1× kinase buffer (20 mM HEPES, pH 7.5, 10 mM MgCl2, 2 mM DTT and 0.01% Triton X-100) was mixed with 10 μL of CDK9/CyclinT1 (Millipore, 14-685M #, final concentration 12.5 nM in 1× Kinase buffer) in 384 plates and incubated at room temperature for 10 min. To initiate each reaction, 10 μL of peptide solution containing fluorescently-labeled -peptide CTD3 (5-FAM-[…], GL, SY346885 #, final concentration 3000 nM) and ATP (final concentration […]) in 1× Kinase buffer was added to each of the wells containing test compound and CDK9/CyclinT1 mixture. The reaction is then allowed to proceed at 28° C. for 30 min and terminated by the addition of 25 μL stop buffer (100 mM HEPES pH 7.5, 50 mM EDTA, 0.2% Coating Reagent #3 (Perkin Elmer, 760050 #) and 0.015% Brij-35).
(§1) Following the kinase reaction, Caliper EZ reader II (Downstream voltages: −500V, Upstream voltages: −2250V, Base pressure −0.5 PSI, Screen pressure −1.2 PSI) was used to separate the phosphorylated (product) and the unphosphorylated (substrate) fluorescently-labeled peptide CTD3 based on their different mobility. Both substrate and product were measured and the ratio of these values were used to generate % conversion by Caliper EZ reader II. These conversion values were then transformed into % inhibition of kinase activity using the formula: % Inhibition=[(MA−X)/(MA−MI)]×100% where MA=conversion value of DMSO only controls, MI=conversion value of no enzyme controls and X=conversion value at any given compound dose. IC50 values were then calculated by plotting dose-response curves and then using the XLfit application in Excel software.

The next assay concerns the target T3, CDK2/CyclinE1 (Homo sapiens, UniProt P24941).
T3 construct: purchased Carna 04-165
The assay is described as follows: CDK2/CyclinE1 kinase inhibitory activity (Caliper mobility shift). The following applies: enzyme 3 nM, ATP 77 μM, 28° C. 30 min; read-out: CDK2/Cyclin E1 IC50. The procedure: CDK2/CyclinE1 kinase inhibitory activity (IC50): 5 μl of various dilutions of test compounds in 1×kinase buffer (50 mM HEPES pH 7.5, 10 mM MgCl2, 2 mM DTT and […] Brij-35) were mixed with 10 μL of CDK2/CyclinE1 (Carna, 04-165 #, final concentration 3 nM in 1×Kinase buffer) in 384 plates and incubated at room temperature for 10 min. To initiate each reaction, 10 μL of peptide solution containing fluorescently-labeled-peptide 18(5-FAM-QSPKKG-CONH2) (GL, 114202 #, final concentration 3000 nM) and ATP (final concentration 77 μM) in 1×Kinase buffer was added to each of the wells containing test compound and CDK2/CyclinE1 mixture. The reaction was then allowed to proceed at 28° C. for 30 min and terminated by the addition of 25 μL stop buffer (100 mM HEPES pH 7.5, 50 mM EDTA, 0.2% Coating Reagent #3 (Perkin Elmer, 760050 #) and 0.015% Brij-35).
as §1, with “18” for “CTD3”

T2 sequence (P50750 whole entry): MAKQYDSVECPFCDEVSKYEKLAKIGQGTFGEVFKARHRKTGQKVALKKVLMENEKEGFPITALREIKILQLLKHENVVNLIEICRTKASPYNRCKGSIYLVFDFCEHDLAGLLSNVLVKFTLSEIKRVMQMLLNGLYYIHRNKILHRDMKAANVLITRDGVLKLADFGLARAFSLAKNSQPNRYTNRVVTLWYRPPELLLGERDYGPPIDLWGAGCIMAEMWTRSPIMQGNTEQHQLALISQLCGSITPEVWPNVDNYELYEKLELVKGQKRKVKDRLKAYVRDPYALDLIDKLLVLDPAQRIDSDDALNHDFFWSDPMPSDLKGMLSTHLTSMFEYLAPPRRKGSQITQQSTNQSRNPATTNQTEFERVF
T2 sequence (O60563 whole entry partner): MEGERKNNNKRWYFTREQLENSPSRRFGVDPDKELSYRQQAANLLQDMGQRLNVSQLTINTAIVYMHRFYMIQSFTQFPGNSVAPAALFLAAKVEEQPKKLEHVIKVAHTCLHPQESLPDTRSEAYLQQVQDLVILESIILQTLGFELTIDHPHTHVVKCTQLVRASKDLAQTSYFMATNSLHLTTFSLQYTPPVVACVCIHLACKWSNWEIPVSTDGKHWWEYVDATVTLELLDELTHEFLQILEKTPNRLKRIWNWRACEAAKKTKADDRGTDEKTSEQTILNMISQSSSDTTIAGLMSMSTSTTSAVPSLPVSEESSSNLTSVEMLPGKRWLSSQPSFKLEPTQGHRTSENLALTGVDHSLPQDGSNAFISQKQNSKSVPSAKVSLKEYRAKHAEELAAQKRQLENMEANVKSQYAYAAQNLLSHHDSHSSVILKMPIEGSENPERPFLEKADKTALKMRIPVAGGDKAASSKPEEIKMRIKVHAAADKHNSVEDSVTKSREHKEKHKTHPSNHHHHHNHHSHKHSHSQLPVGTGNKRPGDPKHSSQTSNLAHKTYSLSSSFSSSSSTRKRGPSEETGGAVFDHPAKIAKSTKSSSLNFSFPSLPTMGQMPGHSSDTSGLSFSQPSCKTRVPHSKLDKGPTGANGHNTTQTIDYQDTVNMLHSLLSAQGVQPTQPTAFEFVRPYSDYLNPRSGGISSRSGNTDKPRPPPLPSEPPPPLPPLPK
T1 sequence (P11802 whole entry): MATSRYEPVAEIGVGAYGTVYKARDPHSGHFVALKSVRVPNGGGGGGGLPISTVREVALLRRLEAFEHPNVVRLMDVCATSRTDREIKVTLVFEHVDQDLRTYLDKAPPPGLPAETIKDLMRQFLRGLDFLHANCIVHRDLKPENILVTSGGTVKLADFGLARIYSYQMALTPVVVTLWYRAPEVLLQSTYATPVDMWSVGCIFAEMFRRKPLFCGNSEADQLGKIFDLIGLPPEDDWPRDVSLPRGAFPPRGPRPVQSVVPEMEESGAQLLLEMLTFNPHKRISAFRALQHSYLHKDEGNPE
T1 sequence (P24385 whole entry partner): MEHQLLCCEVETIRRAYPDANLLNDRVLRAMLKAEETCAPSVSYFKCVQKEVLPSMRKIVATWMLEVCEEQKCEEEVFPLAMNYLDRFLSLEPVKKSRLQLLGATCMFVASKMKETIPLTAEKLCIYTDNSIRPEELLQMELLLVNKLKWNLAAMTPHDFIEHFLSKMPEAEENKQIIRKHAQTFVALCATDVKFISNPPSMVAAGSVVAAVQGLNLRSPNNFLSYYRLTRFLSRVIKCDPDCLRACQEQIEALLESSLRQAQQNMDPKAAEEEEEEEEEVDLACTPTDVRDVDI

`Cc1c(C(C)NC2CC2)cnc2c(F)cc(-c3nc(N[C@@H]4CCOC[C@H]4O)ncc3Cl)cc12` (single isomer, unassigned) [Example 91b]: the IC50 at CDK4/CyclinD1 is under 10 nM; at CDK9/CyclinT1, at least 1000 nM; at CDK2/CyclinE1 it was 100 to 1000 nM.

As to `[2H]c1nc(N[C@@H]2CCOC[C@H]2O)nc(-c2cc(F)c3nc([2H])c4c(c3c2)CNC2(CC2)C4)c1Cl` [Example 68], the results for the IC50 on CDK4/CyclinD1, at CDK9/CyclinT1 and at CDK2/CyclinE1 were under 10 nM, 100 to 1000 nM and 100 to 1000 nM, respectively.

Turning to `[2H]c1nc2c(F)cc(-c3nc(N[C@@H]4CCOC[C@H]4O)ncc3F)cc2c(C)c1C(C)(C)O` [Example 94], the IC50 is under 10 nM at CDK4/CyclinD1, 100 to 1000 nM at CDK9/CyclinT1 and 100 to 1000 nM at CDK2/CyclinE1.

Turning to `CC(C)(O)c1cnc2c(F)cc(-c3nc(N[C@@H]4CCOC[C@H]4O)ncc3C#N)cc2c1Cl` [Example 41], the IC50 on CDK4/CyclinD1 was under 10 nM; at CDK9/CyclinT1, at least 1000 nM; at CDK2/CyclinE1, 100 to 1000 nM.

Turning to `CNC(C)c1cnc2c(F)cc(-c3nc(N[C@@H]4CCOC[C@H]4O)ncc3Cl)cc2c1` (single isomer, unassigned) [Example 32a], the IC50 at CDK4/CyclinD1 is under 10 nM; on CDK9/CyclinT1 it was 100 to 1000 nM; at CDK2/CyclinE1, 10 to 100 nM.

As to `Cc1nc2c(F)cc(-c3nc(N[C@@H]4CCOC[C@H]4O)ncc3F)cc2c(C)c1C(C)O` (single isomer, unassigned) [Example 81b], the results for the IC50 at CDK4/CyclinD1, on CDK9/CyclinT1 and on CDK2/CyclinE1 were under 10 nM, 100 to 1000 nM and 100 to 1000 nM, respectively.

Consider `O[C@@H]1COCC[C@H]1Nc1cc(-c2cc(F)c3ncc4c(c3c2)CNCC4)c(Cl)cn1` [Example 25], for which the IC50 is under 10 nM at CDK4/CyclinD1, 10 to 100 nM on CDK9/CyclinT1 and 10 to 100 nM at CDK2/CyclinE1.

Regarding `Cc1nc2c(F)cc(-c3nc(N[C@@H]4CCOC[C@H]4O)ncc3Cl)cc2c(Cl)c1C(C)O` (single isomer, unassigned) [Example 35b], the IC50 is under 10 nM at CDK4/CyclinD1, at least 1000 nM at CDK9/CyclinT1 and 100 to 1000 nM at CDK2/CyclinE1.

`Cc1c(C(C)(C)O)cnc2c(F)cc(-c3nc(N[C@@H]4CCOC[C@H]4O)ncc3F)cc12` [Example 23, (3S,4R)-4-((5-fluoro-4-(8-fluoro-3-(2-hydroxypropan-2-yl)-4-methylquinolin-6-yl)pyrimidin-2-yl)amino)tetrahydro-2H-pyran-3-ol]: the results for the IC50 at CDK4/CyclinD1, at CDK9/CyclinT1 and on CDK2/CyclinE1 were under 10 nM, 100 to 1000 nM and 10 to 100 nM, respectively.

Regarding `Cc1[nH]cnc1-c1cnc2c(F)cc(-c3nc(N[C@@H]4CCOC[C@H]4O)ncc3Cl)cc2c1` [Example 18, (3S,4R)-4-((5-chloro-4-(8-fluoro-3-(5-methyl-1H-imidazol-4-yl)quinolin-6-yl)pyrimidin-2-yl)amino)tetrahydro-2H-pyran-3-ol], the IC50 is under 10 nM on CDK4/CyclinD1, at least 1000 nM on CDK9/CyclinT1 and 100 to 1000 nM at CDK2/CyclinE1.

`CNC(C)c1cc2cc(-c3nc(N[C@@H]4CCOC[C@H]4O)ncc3Cl)cc(F)c2nc1C` (single isomer, unassigned) [Example 45a]: the IC50 on CDK4/CyclinD1 is under 10 nM; on CDK9/CyclinT1, 100 to 1000 nM; on CDK2/CyclinE1, 100 to 1000 nM.

For the molecule `Cc1c(C(C)O)cnc2c(F)cc(-c3nc(N[C@@H]4CCOC[C@H]4O)ncc3Cl)cc12` (single isomer, unassigned) [Example 88a], the IC50 at CDK4/CyclinD1 is under 10 nM; at CDK9/CyclinT1, 100 to 1000 nM; at CDK2/CyclinE1 it was 100 to 1000 nM.

In the case of `CC1Cc2cnc3c(F)cc(-c4nc(N[C@@H]5CCOC[C@H]5O)ncc4Cl)cc3c2CN1` (single isomer, unassigned) [Example 34a], the figures for the IC50 on CDK4/CyclinD1, on CDK9/CyclinT1 and on CDK2/CyclinE1 were under 10 nM, 10 to 100 nM and 10 to 100 nM, respectively.

On to `Cc1nc2c(F)cc(-c3nc(N[C@@H]4CCOC[C@H]4O)ncc3F)cc2c2c1CC1(CC1)NC2` [Example 65], for which the IC50 at CDK4/CyclinD1 is under 10 nM; at CDK9/CyclinT1 it was 100 to 1000 nM; on CDK2/CyclinE1, 100 to 1000 nM.

Regarding `Cc1nc2c(F)cc(-c3nc(N[C@@H]4CCOC[C@H]4O)ncc3Cl)cc2c(C)c1[C@@H](C)O` (single isomer, unassigned) [Example 15a], the IC50 at CDK4/CyclinD1 is under 10 nM; on CDK9/CyclinT1, 100 to 1000 nM; on CDK2/CyclinE1 it was 100 to 1000 nM.

Turning to `[2H]c1nc2c(F)cc(-c3nc(N[C@@H]4CCOC[C@H]4O)ncc3Cl)cc2c2c1CC(C)(C)NC2` [Example 100], the IC50 at CDK4/CyclinD1 was under 10 nM; on CDK9/CyclinT1, 10 to 100 nM; at CDK2/CyclinE1, 100 to 1000 nM.

On to `CC(C)(N)c1cnc2ccc(-c3nc(N[C@@H]4CCOC[C@H]4O)ncc3Cl)cc2c1` [Example 26], for which the IC50 at CDK4/CyclinD1 was in the range of 10 to 100 nM; at CDK9/CyclinT1, 100 to 1000 nM; at CDK2/CyclinE1, 100 to 1000 nM.

In the case of `O[C@@H]1COCC[C@H]1Nc1ncc(Cl)c(-c2cc(F)c3c(c2)N2CCNC[C@@H]2CO3)n1` [Example 19, (3S,4R)-4-((5-chloro-4-((R)-7-fluoro-1,2,3,4,4a,5-hexahydrobenzo[b]pyrazino[1,2-d][1,4]oxazin-9-yl)pyrimidin-2-yl)amino)tetrahydro-2H-pyran-3-ol], the figures for the IC50 on CDK4/CyclinD1, on CDK9/CyclinT1 and at CDK2/CyclinE1 were under 10 nM, 10 to 100 nM and 10 to 100 nM, respectively.

Consider `Cc1nc2c(F)cc(-c3nc(N[C@@H]4CCOC[C@H]4O)ncc3Cl)cc2c2c1CCN(C)C2` [Example 37], for which the IC50 at CDK4/CyclinD1 is under 10 nM; on CDK9/CyclinT1, at least 1000 nM; on CDK2/CyclinE1, at least 1000 nM.

On to `Cc1nc2c(F)cc(-c3nc(N[C@@H]4CCOC[C@H]4O)ncc3F)cc2c(C)c1C(C)O` (single isomer, unassigned) [Example 81a], for which the IC50 at CDK4/CyclinD1 was under 10 nM; on CDK9/CyclinT1 it was 10 to 100 nM; on CDK2/CyclinE1, 100 to 1000 nM.

For the molecule `[2H]C([2H])([2H])C(O)(c1cc2cc(-c3nc(N[C@@H]4CCOC[C@H]4O)ncc3Cl)cc(F)c2nc1C)C([2H])([2H])[2H]` [Example 60, (3S,4R)-4-((5-chloro-4-(8-fluoro-3-(2-hydroxypropan-2-yl-1,1,1,3,3,3-d6)-2-methylquinolin-6-yl)pyrimidin-2-yl)amino)tetrahydro-2H-pyran-3-ol], the IC50 on CDK4/CyclinD1 is under 10 nM; at CDK9/CyclinT1 it was 100 to 1000 nM; on CDK2/CyclinE1, at least 1000 nM.

For the molecule `CNC(C)c1cc2cc(-c3nc(N[C@@H]4CCOC[C@H]4O)ncc3Cl)cc(F)c2nc1C` (single isomer, unassigned) [Example 45b], the values for the IC50 on CDK4/CyclinD1, on CDK9/CyclinT1 and at CDK2/CyclinE1 were under 10 nM, at least 1000 nM and at least 1000 nM, respectively.

As to `O[C@@H]1COCC[C@H]1Nc1ncc(F)c(-c2cc(F)c3ncc4c(c3c2)CNC2(CC2)C4)n1` [Example 56], the IC50 on CDK4/CyclinD1 is under 10 nM; on CDK9/CyclinT1, 10 to 100 nM; on CDK2/CyclinE1, 10 to 100 nM.

For the molecule `CC(C)(O)c1cnc2c(F)cc(-c3nc(N[C@@H]4CCOC[C@H]4O)ncc3Cl)cc2c1` [Example 1, (3S,4R)-4-((5-chloro-4-(8-fluoro-3-(2-hydroxypropan-2-yl)quinolin-6-yl)pyrimidin-2-yl)amino)tetrahydro-2H-pyran-3-ol], the IC50 was under 10 nM on CDK4/CyclinD1, at least 1000 nM at CDK9/CyclinT1 and at least 1000 nM on CDK2/CyclinE1.

On to `CC1(C)Cc2cnc3c(F)cc(-c4nc(N[C@@H]5CCOC[C@H]5O)ncc4Cl)cc3c2CN1` [Example 30], for which the IC50 at CDK4/CyclinD1 was under 10 nM; at CDK9/CyclinT1, 10 to 100 nM; on CDK2/CyclinE1 it was 100 to 1000 nM.
